Test results from patent publication US5175253A, “Binding peptides” (Washington University, priority 1991, dated 1992).
Where two headings read alike, the source gives them in different places. Ends that are not written are not given here.

Columns and labels:
SEC receptor [1] = experiment: Competition for binding to, and cross-linking of, the SEC receptor of HepG2 cells; design: species or system human
substance P receptor = target: T1, substance P receptor (Rattus norvegicus, UniProt P14600); experiment: Competition for binding of substance P to a stable transfected cell line expressing the substance P receptor
T1 construct: expressed in transfected cells
T1 sequence (P14600 whole entry): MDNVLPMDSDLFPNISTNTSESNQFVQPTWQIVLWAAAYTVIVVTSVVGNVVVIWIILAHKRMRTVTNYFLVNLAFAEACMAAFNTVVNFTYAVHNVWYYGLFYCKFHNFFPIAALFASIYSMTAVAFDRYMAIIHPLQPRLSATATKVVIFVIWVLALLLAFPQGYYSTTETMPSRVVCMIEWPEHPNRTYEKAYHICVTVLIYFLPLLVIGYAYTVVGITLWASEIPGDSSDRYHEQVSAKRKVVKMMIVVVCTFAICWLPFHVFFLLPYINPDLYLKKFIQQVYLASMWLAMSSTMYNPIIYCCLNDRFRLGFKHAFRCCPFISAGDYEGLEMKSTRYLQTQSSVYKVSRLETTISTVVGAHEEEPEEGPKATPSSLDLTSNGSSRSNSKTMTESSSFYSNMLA

[2] = Solubility of peptides in water and DMSO
Procedure: Some of the peptides used as candidate competitors, especially the pentapeptides, were dissolved in dimethylsulfoxide (DMSO) because they were not soluble in water. For all of these tests the same final concentration of DMSO was added to each cell monolayer.

SEC receptor [3] = experiment: Competition for binding of 125I peptide 105Y to HepG2 cells; design: species or system human; settings: 125I peptide 105Y 50 nM, 2 hrs at 4° C., unlabelled competitor
Procedure: For each test HepG2 cells were incubated for 2 hrs at 4° C. in binding buffer, ^125 I peptide 105Y at saturating concentrations (50 nM) and competing unlabelled synthetic peptides in the concentrations specified on the horizontal axis. […] Binding in the absence of competitor was arbitrarily designated 100% binding on the vertical axis. Each data point and set of error bars represent mean and 1 standard deviation for four separate determinations. Partial amino acid sequences of α1 AT and synthetic peptides are shown at the top of each of panels a, b and c.
Each bar represents mean and 1 standard deviation for 3 separate determinations.

SEC receptor [4] = experiment: Competition for binding of α1 AT-125I trypsin complexes to HepG2 cells; design: species or system human; settings: complexes 50 nM, competitor in 50-fold molar excess, 2 hrs at 4° C.
Procedure: FIG. 2 presents two bar graphs which show competition for binding and internalization of α1 AT^125 I trypsin complexes by HepG2 cells. For panel a, HepG2 cells were incubated for 2 hours at 4° C. in binding buffer, α1 AT-^125 I trypsin complexes in subsaturating concentrations (50 nM) and competing unlabelled proteins or synthetic peptides in 50-fold molar excess. The cells were then rinsed, homogenized and cell-associated radioactivity determined. Binding in the absence of competitor was arbitrarily designated 0% inhibition of binding on the vertical axis. Results represent mean and 1 standard deviation for 3 separate determinations of each competitor. For panel b, HepG2 cells were incubated for 1 hour at 37° C. in binding buffer, α1 AT^125 I trypsin complexes in subsaturating concentrations (50 nM) and competing unlabelled proteins or synthetic peptides in 50-fold molar excess. […] Internalization in the absence of competitor was arbitrarily designated 0% inhibition of internalization on the vertical axis. Results represent mean and 1 standard deviation for 3 separate determinations of each putative competitor. Partial amino acid sequences for α1 AT and peptides are shown at the top of each panel. […]

SEC receptor [5] = experiment: Competition for internalization of α1 AT-125I trypsin complexes by HepG2 cells; assay type: cell-based, human; settings: 50-fold molar excess, 60 minutes at 37° C., Proteinase K-resistant radioactivity
Procedure: FIG. 2 presents two bar graphs which show competition for binding and internalization of α1 AT^125 I trypsin complexes by HepG2 cells. For panel a, HepG2 cells were incubated for 2 hours at 4° C. in binding buffer, α1 AT-^125 I trypsin complexes in subsaturating concentrations (50 nM) and competing unlabelled proteins or synthetic peptides in 50-fold molar excess. The cells were then rinsed, homogenized and cell-associated radioactivity determined. Binding in the absence of competitor was arbitrarily designated 0% inhibition of binding on the vertical axis. Results represent mean and 1 standard deviation for 3 separate determinations of each competitor. For panel b, HepG2 cells were incubated for 1 hour at 37° C. in binding buffer, α1 AT^125 I trypsin complexes in subsaturating concentrations (50 nM) and competing unlabelled proteins or synthetic peptides in 50-fold molar excess. […] Internalization in the absence of competitor was arbitrarily designated 0% inhibition of internalization on the vertical axis. Results represent mean and 1 standard deviation for 3 separate determinations of each putative competitor. Partial amino acid sequences for α1 AT and peptides are shown at the top of each panel.
The cells were then rinsed extensively and incubated with Proteinase K for an additional 60 minutes at 4° C. to remove any surface bound radiolabelled ligand. Internalization was defined as radioactivity associated with the resulting cell pellet. […] Higher degrees of inhibition were achieved by higher concentrations of competitors in other tests.

SEC receptor [6] = experiment: Direct binding of 125I peptide 105C to HepG2 cells; design: species or system human
Procedure: (§1) Left panel a: cells were incubated 2 hours at 4° C. with several different concentrations of ^125 I peptide 105C in the absence (open circles, total ligand binding) or the presence of unlabelled peptide 105C in 200-fold molar excess (filled circles, nonspecific binding). The difference was designated specific binding (open triangles). The cells were then rinsed and cell-associated radioactivity was determined by gamma counting of cell homogenates. Right panel b: cells were incubated for 2 hours at 4° C. with ^125 I peptide 105C in subsaturating concentrations (50 nM) in the absence or presence of unlabelled competing proteins or peptides as indicated on the horizontal axis. The molar excess in fold of each competitor is indicated in parentheses. Binding in the absence of competitor was arbitrarily designated 0% inhibition of binding on the vertical axis.
(§2) The direct binding of peptide 105C to HepG2 cells was also examined. This peptide was radioiodinated by the chloramine T method and purified by reverse phase C:18 chromatography. Separate monolayers of cells were incubated with ^125 I-105C in several different concentrations either in the absence or presence of unlabelled 105C in 200-fold molar excess (FIG. 3, left panel a). […]

SEC receptor [7] = experiment: Competition for binding of 125I peptide 105C to HepG2 cells; design: species or system human; settings: 125I peptide 105C 50 nM, 2 hours at 4° C.
Procedure: as §1, §2

SEC receptor [8] = settings: cited from earlier work
SEC receptor [9] = settings: unlabelled competitor; cited from earlier work
synthesis of α1 AT = settings: cited from earlier work

CSCC[C@H](NC(=O)[C@H](CC(C)C)NC(=O)[C@H](Cc1cnc[nH]1)NC(=O)CNC(=O)[C@@H](NC(=O)[C@H](C)NC(=O)[C@H](Cc1c[nH]c2ccccc12)NC(=O)[C@H](CCC(N)=O)NC(=O)[C@H](CC(N)=O)NC(=O)CNC(=O)[C@H](CC(C)C)NC(=O)[C@H](CCCN=C(N)N)NC(=O)[C@H](CCC(N)=O)NC(=O)[C@@H]1CCC(=O)N1)C(C)C)C(N)=O [bombesin]
competition for binding to, and cross-linking of, the SEC receptor (SEC receptor [1]): compete for binding to, and cross-linking of, the SEC receptor | competition for binding of substance P (substance P receptor): do not compete for binding of substance P

EVKFNKP [peptide 105B, Glu-Val-Lys-Phe-Asn-Lys-Pro]
solubility [2]: soluble in both water and DMSO

Phe-Val-Tyr-Leu-Ile (FVYLI) [peptide 105C]
competition for binding of 125I peptide 105Y to HepG2 cells (SEC receptor [3]): compete as effectively as peptide 105Y | competition for binding of 125I peptide 105Y to HepG2 cells (SEC receptor [3]; listed as FVYLI): no difference in inhibition of binding | inhibition of binding of α1 AT-125I trypsin complexes to HepG2 cells (SEC receptor [4]): inhibits binding | inhibition of internalization of α1 AT-125I trypsin complexes (SEC receptor [5]): inhibits internalization as effectively as peptide 105Y and unlabelled α1 AT-trypsin complexes | direct binding to HepG2 cells (SEC receptor [6]; 125I-105C with or without unlabelled 105C in 200-fold molar excess): specific and saturable binding | Kd (SEC receptor [6]; 125I-105C, HepG2 cells, 2 hours at 4° C., read-out: point of half-maximal saturation): ~40 nM

SIPPEVKFNKPFVYLI [peptide 105Y, carboxy-terminal fragment, amino acids 359-374, of α1 AT]
competition for binding of 125I peptide 105Y to HepG2 cells (SEC receptor [3]): compete | inhibition of binding of α1 AT-125I trypsin complexes to HepG2 cells (SEC receptor [4]): inhibits binding | inhibition of internalization of α1 AT-125I trypsin complexes (SEC receptor [5]): inhibits internalization | inhibition of binding of 125I 105C (SEC receptor [7]): inhibited | competition for binding of substance P (substance P receptor): do not compete for binding of substance P | Kd (SEC receptor [8]; 125I peptide 105Y, HepG2 cells and human blood monocytes, read-out: K2): 40 nM | direct binding of 125I peptide 105Y (SEC receptor [8]; HepG2 cells and human blood monocytes): bound specifically and saturably | blocking of binding of 125I α1 AT-elastase complexes (SEC receptor [9]): blocked binding | effect on synthesis of α1 AT (synthesis of α1 AT): mediated an increase in synthesis of α1 AT

amyloid-β-protein
competition for binding to, and cross-linking of, the SEC receptor (SEC receptor [1]): compete for binding to, and cross-linking of, the SEC receptor | competition for binding of substance P (substance P receptor): do not compete for binding of substance P

native α1 AT: purified human plasma α1-antitrypsin, 55 kDa serum glycoprotein
inhibition of internalization of α1 AT-125I trypsin complexes (SEC receptor [5]): no significant inhibition of internalization

α1 ACT-cathepsin G complexes: serpin-enzyme complex
blocking of binding of 125I peptide 105Y (SEC receptor [8]): blocked

α1 AT-elastase complexes: complex of α1 AT with neutrophil elastase
blocking of binding of 125I peptide 105Y (SEC receptor [8]): blocked
